Data published in PMC5065625, “Structure-mechanism-based engineering of chemical regulators targeting distinct pathological factors in Alzheimer's disease” (Nature Communications, 2016).

Legend:
[1] = Cell viability (MTT assay), compounds with and without metal ions; assay type: cell-based, human; conditions: human, SK-N-BE(2)-M17 (M17) neuroblastoma cells; M17 cells, in the absence of Cu(II), 48 and 72 h
Experimental: The M17 cell line was purchased from the American Type Culture Collection (ATCC, Manassas, VA, USA). The cell line was maintained in media containing 50% minimum essential medium and 50% F12 (GIBCO, Grand Island, NY, USA), supplemented with 10% fetal bovine serum (Sigma), 100 U ml^−1 penicillin, and […] streptomycin (GIBCO). The cells were grown and maintained at 37 °C in a humidified atmosphere with 5% CO2. […] Cell viability upon treatment of compounds was determined using the MTT assay (Sigma). M17 cells were seeded in a 96-well plate (15,000 cells in 100 μl per well). The cells were treated with Aβ (20 μM) with or without CuCl2 or ZnCl2 (20 μM), followed by the addition of compounds (20 μM, 1% v/v final DMSO concentration), and incubated for 24 h. After incubation, 25 μl MTT (5 mg ml^−1 in phosphate buffered saline (PBS, pH 7.4, GIBCO) was added to each well and the plate was incubated for 4 h at 37 °C. Formazan produced by the cells was solubilized using an acidic solution of N,N-dimethylformamide (DMF, 50%, v/v aq) and SDS (20%, w/v) overnight at room temperature in the dark. The absorbance was measured at 600 nm using a microplate reader. Cell viability was calculated relative to cells containing an equivalent amount of DMSO.

metal-free Aβ40/Aβ42 = metal-free Aβ40/Aβ42 (Homo sapiens, UniProt P05067); experiment: Aβ aggregation inhibition/disaggregation experiments (gel/western blot, TEM), metal-free; assay type: biochemical; conditions: Aβ 25 μM, compound 50 μM, 37 °C, 24 h; gel/western blot and TEM
Experimental: The ability of 1–4 to control the aggregation of both metal-free Aβ and metal-Aβ in inhibition (Fig. 2) and disaggregation experiments (Supplementary Fig. 1) was evaluated using the two major Aβ isoforms (Aβ40/Aβ42)[1][2][3][6][16] found in the AD-affected brain. Molecular weight (MW) distributions and morphologies of the resulting Aβ species were determined by gel electrophoresis followed by western blotting (gel/western blot) and transmission electron microscopy (TEM). Generally, under the experimental conditions employed herein, compound-free Aβ samples with and without metal ions assemble into a distribution of large aggregates that are too big to penetrate into the gel matrix, which yields very little smearing in the gel/western blots, but they can be visualized by TEM. […]
Before experiments, Aβ40 or Aβ42 was dissolved in ammonium hydroxide (NH4OH; 1% v/v, aq). […] The concentration of the solution was determined by measuring the absorbance of the solution at 280 nm (ɛ=1,450 M^–1 cm^–1 for Aβ40; ɛ=1,490 M^–1 cm^–1 for Aβ42). […]
The Aβ samples from in vivo or in vitro experiments were analysed by gel electrophoresis followed by western blotting using an anti-Aβ antibody (6E10)[24][25][27][28][29]. […]

5 × FAD AD mouse model = experiment: Morris water maze test; assay type: in vivo; conditions: 1 mg kg^−1 daily i.p., 30 days
Experimental: Chemicals used were freshly prepared shortly before administration to the animals. We treated 5 × FAD mice with 1 (1 mg kg^−1 of body weight) or the vehicle (1% v/v DMSO in 20 mM HEPES, pH 7.4, 150 mM NaCl) starting at 3 months of age, which is the same method used in our previous studies. 1 was daily injected into the lower abdomen of the 5 × FAD mice for 30 days.
Mice were subjected to the Morris water maze test to assess their performance of spatial learning and memory. The water maze was a circular plastic pool (120 cm diameter) and filled with murky water (21.0±1.0 °C). A cylindrical escape platform (15 cm diameter) stood 0.5 cm under the water surface. Three hours after the 30th compound treatment, the mice were allowed the first training to swim and find the hidden escape platform in the water with three repeats per training. Thereafter, they daily tried the task on the next 4 consecutive days. Three hours after the final escape test, the platform was removed, and the mice exercised a probe trial for 60 s. The animal performance was traced with SMART Video Tracking System (Harvard Apparatus, Holliston, MA, USA).

Chain of metal-free Aβ40/Aβ42 (P05067 672-711 limits assumed): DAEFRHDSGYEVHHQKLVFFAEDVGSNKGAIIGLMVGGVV

Row | Compound | viability at up to 20 μM [1] [%] | Modulation of metal-free Aβ aggregation (metal-free Aβ40/Aβ42) | Finding the hidden escape platform (trial trainings) (5 × FAD AD mouse model) | Probe trials, long-term spatial memory (5 × FAD AD mouse model)
1 | CN(C)c1ccc(NCc2ccc[nH]2)cc1 [compound 4, N^1-((1H-pyrrol-2-yl)methyl)-N^4,N^4-dimethylbenzene-1,4-diamine] | ~60 | pronounced influence on metal-free Aβ aggregation |  | 
2 | Nc1ccc(NCc2ccccn2)cc1 [compound 1, N^1-(pyridin-2-ylmethyl)benzene-1,4-diamine] |  |  | faster than the vehicle-treated 5 × FAD mice | significant improvement of the long-term spatial memory
